In patent US20220117919A1, “ENHANCED BIOAVAILABILITY OF N-(2,6-BIS(1-METHYLETHYL)PHENYL)-N'-((1-(4-(DIMETHYLAMINO)-PHENYL)CYCLOPENTYL)METHYL)UREA HYDROCHLORIDE” (The Regents of the University of Michigan, priority 2015, published 2022):
Values joined by “and” are separate entries in the source; they are usually repeats but may differ in a detail not shown here. Identical values can stand only once. Counter-ions that a name gives are not always drawn. Like-named read-outs stand apart in the source and are kept apart here.

Experiment: Food and acidic beverage effect on bioavailability of ATR-101 tablets, 3-way crossover plasma PK study
Format: in vivo, human
Details: for kel: in h-1; for AUC0-t Ratio C/A: fasting with acidic beverage vs fasting with water; for AUC0-t Ratio B/C: fed with water vs fasting with acidic beverage; for AUC0-t Ratio B/A: fed with water vs fasting with water
Experimental: To evaluate the effects of food and of an acidic beverage on bioavailability of ATR-101 tablets prepared according to Example 2 (see Table 2), an open-label, randomized, 3-period, 3-way crossover, 3-sequence study was carried out with fourteen healthy, adult, non-tobacco using male and female (non-childbearing potential only) human subjects.
Three different treatments A, B, and C were administered as follows:
Treatment A: 500 mg ATR-101 (1×500 mg tablet) administered with water at Hour 0 on Day 1 following an overnight fast.
Treatment B: 500 mg ATR-101 (1×500 mg tablet) administered with water at Hour 0, 30 minutes after the start of a high-fat breakfast, on Day 1.
Treatment C: 500 mg ATR-101 (1×500 mg tablet) administered with Coca-Cola® Classic at Hour 0 on Day 1 following an overnight fast.
On Day 1 of Period 1, subjects were randomized to one of 3 treatment sequences: ABC, BCA, or CBA. For Treatments A and B, ATR-101 was administered orally with approximately 240 mL of water. For Treatment C, ATR-101 was administered orally with approximately 240 mL of Coca-Cola® Classic. Water (except water provided with dosing for Treatments A and B) was restricted 1 hour prior to and 1 hour after each study drug administration, but was allowed ad libitum at all other times. Other fluids were given as part of the standard meals (including the breakfast administered prior to study drug dosing for Treatment B) and/or snacks, but were restricted at all other times (except for the Coca-Cola® Classic beverage provided with dosing in Treatment C) throughout the confinement period.
For Treatments A and C, subjects fasted overnight for at least 10 hours prior to study drug administration and continued the fast for at least 4 hours post-dose.
For Treatment B, subjects were required to fast overnight for at least 10 hours until 30 minutes prior to study drug administration, when they were given breakfast which was entirely consumed within 30 minutes. A representative breakfast includes 2 slices of buttered toast, 2 fried eggs, 2 strips of bacon, 4 oz of hash brown potatoes, and 240 mL of whole milk.
On Day 1 of each period, a standard lunch and dinner was provided at approximately 4 and 9 hours post-dose, respectively, and a snack was also offered at approximately 12 hours post-dose. On other days when confined in the CRU, standard meals and/or snacks were provided at appropriate times. When confined, subjects were required to fast from all food and drink except water between meals and snacks served at the clinical research unit.
Each meal and/or snack served at the clinical research unit was standardized and was similar in caloric content and composition (except for the meal served as part of Treatment B) and was taken at approximately the same time in each period.
For all subjects, blood samples for the determination of ATR-101 plasma concentration were collected at pre-dose and 0.5, 1, 1.5, 2, 2.5, 3, 3.5, 4, 5, 6, 8, 12, 16, 24, 36, and 48 hours post-dose. PK parameters for plasma ATR-101 were calculated as follows: • AUC0-t: The area under the plasma concentration-time curve, from time 0 to the last measurable non-zero concentration, was calculated by the linear trapezoidal method. • AUC0-inf: The area under the plasma concentration-time curve from time 0 extrapolated to infinity. AUC0-inf was calculated as the sum of AUC0-t plus the ratio of the last measurable plasma concentration to the elimination rate constant. • AUC%extrap: Percent of AUC0-inf extrapolated, represented as
[formula] • Cmax: Maximum observed concentration. • tmax: Time to reach Cmax. If the maximum value occurred at more than one time point, tmax was defined as the first time point with this value. • ke1: Apparent first-order terminal elimination rate constant calculated from a semi-log plot of the plasma concentration versus time curve. […]

[1] = Treatment C (fasting with acidic beverage), single oral 500 mg, Minimum
[2] = Treatment C (fasting with acidic beverage, Coca-Cola Classic), single oral 500 mg, individual subject, hydrochloride
[3] = individual subject, hydrochloride

What does the source list for `CC(C)c1cccc(C(C)C)c1NC(=O)NCC1(c2ccc(N(C)C)cc2)CCCC1` [ATR-101, N-(2,6-bis(1-methylethyl)phenyl)-N′-((1-(4-(dimethylamino)-phenyl)cyclopentyl)methyl)urea hydrochloride]?
tmax [1]: 1.50 h; kel [1]: 0.0249; AUC0-inf [2]: 728 and 3990 and 5760 and 2610 and 5420 and 4530 and 6970 and 2880 and 3670 and 2670 and 6680 and 5020; AUC0-t [2]: 572 and 5100 and 2510 and 4940 and 4110 and 6430 and 2360 and 3660 and 3400 and 2250 and 6310 and 4300; AUC% extrap [2]: 21.5% and 4.67% and 11.3% and 3.84% and 8.70% and 9.20% and 7.61% and 18.3% and 7.31% and 15.6% and 5.52% and 14.2%; Cmax [2]: 19.8 ng/mL and 734 ng/mL and 1030 ng/mL and 438 ng/mL and 948 ng/mL and 645 ng/mL and 952 ng/mL and 461 ng/mL and 602 ng/mL and 525 ng/mL and 1550 ng/mL and 893 ng/mL; t1/2 [2]: 17.5 h and 13.8 h and 8.2 h and 14.0 h and 18.7 h and 20.1 h and 7.9 h and 16.0 h and 26.9 h and 14.2 h and 27.1 h; tmax [2]: 6.00 h and 3.00 h and 1.50 h and 2.50 h; kel [2]: 0.0397 and 0.0501 and 0.0380 and 0.0496 and 0.0371 and 0.0345 and 0.0353 and 0.0249 and 0.0433 and 0.0258 and 0.0488 and 0.0256; AUC0-inf (both sexes, human, plasma, po, 500 mg, Treatment A (fasting with water), single oral 500 mg, Geometric Mean, read-out: AUC0-inf): 3480 ng·h/mL; AUC0-t (both sexes, human, plasma, po, 500 mg, Treatment A (fasting with water), single oral 500 mg, Geometric Mean, read-out: AUC0-t): 2710 ng·h/mL; Cmax (both sexes, human, plasma, po, 500 mg, Treatment A (fasting with water), single oral 500 mg, Geometric Mean, read-out: Cmax): 469 ng/mL; half-life (both sexes, human, plasma, po, 500 mg, Treatment A (fasting with water), single oral 500 mg, Mean): 1070 min; AUC0-inf (both sexes, human, plasma, po, 500 mg, Treatment A (fasting with water), single oral 500 mg, Mean, read-out: AUC0-inf): 3620 ng·h/mL; AUC0-t (both sexes, human, plasma, po, 500 mg, Treatment A (fasting with water), single oral 500 mg, Mean, read-out: AUC0-t): 2970 ng·h/mL; Cmax (both sexes, human, plasma, po, 500 mg, Treatment A (fasting with water), single oral 500 mg, Mean, read-out: Cmax): 575 ng/mL; half-life (both sexes, human, plasma, po, 500 mg, Treatment A (fasting with water), single oral 500 mg, Median): 1090 min; AUC0-inf (both sexes, human, plasma, po, 500 mg, Treatment A (fasting with water), single oral 500 mg, Median, read-out: AUC0-inf): 3400 ng·h/mL; AUC0-t (both sexes, human, plasma, po, 500 mg, Treatment A (fasting with water), single oral 500 mg, Median, read-out: AUC0-t): 2620 ng·h/mL; Cmax (both sexes, human, plasma, po, 500 mg, Treatment A (fasting with water), single oral 500 mg, Median, read-out: Cmax): 542 ng/mL; tmax (both sexes, human, plasma, po, 500 mg, Treatment A (fasting with water), single oral 500 mg, Median, read-out: tmax): 2 h; AUC0-inf (both sexes, human, plasma, po, 500 mg, Treatment B (fed with water), single oral 500 mg, Geometric Mean, read-out: AUC0-inf): 6740 ng·h/mL; AUC0-t (both sexes, human, plasma, po, 500 mg, Treatment B (fed with water), single oral 500 mg, Geometric Mean, read-out: AUC0-t): 6200 ng·h/mL; Cmax (both sexes, human, plasma, po, 500 mg, Treatment B (fed with water), single oral 500 mg, Geometric Mean, read-out: Cmax): 1180 ng/mL; half-life (both sexes, human, plasma, po, 500 mg, Treatment B (fed with water), single oral 500 mg, Mean): 1220 min; AUC0-inf (both sexes, human, plasma, po, 500 mg, Treatment B (fed with water), single oral 500 mg, Mean, read-out: AUC0-inf): 7130 ng·h/mL; AUC0-t (both sexes, human, plasma, po, 500 mg, Treatment B (fed with water), single oral 500 mg, Mean, read-out: AUC0-t): 6560 ng·h/mL; Cmax (both sexes, human, plasma, po, 500 mg, Treatment B (fed with water), single oral 500 mg, Mean, read-out: Cmax): 1250 ng/mL; half-life (both sexes, human, plasma, po, 500 mg, Treatment B (fed with water), single oral 500 mg, Median): 1130 min; AUC0-inf (both sexes, human, plasma, po, 500 mg, Treatment B (fed with water), single oral 500 mg, Median, read-out: AUC0-inf): 6810 ng·h/mL; AUC0-t (both sexes, human, plasma, po, 500 mg, Treatment B (fed with water), single oral 500 mg, Median, read-out: AUC0-t): 6110 ng·h/mL; Cmax (both sexes, human, plasma, po, 500 mg, Treatment B (fed with water), single oral 500 mg, Median, read-out: Cmax): 1150 ng/mL; tmax (both sexes, human, plasma, po, 500 mg, Treatment B (fed with water), single oral 500 mg, Median, read-out: tmax): 2.75 h; AUC0-inf (both sexes, human, plasma, po, 500 mg, Treatment C (fasting with acidic beverage), single oral 500 mg, Geometric Mean, read-out: AUC0-inf): 3720 ng·h/mL; AUC0-t (both sexes, human, plasma, po, 500 mg, Treatment C (fasting with acidic beverage), single oral 500 mg, Geometric Mean, read-out: AUC0-t): 3340 ng·h/mL; Cmax (both sexes, human, plasma, po, 500 mg, Treatment C (fasting with acidic beverage), single oral 500 mg, Geometric Mean, read-out: Cmax): 558 ng/mL; half-life (both sexes, human, plasma, po, 500 mg, Treatment C (fasting with acidic beverage), single oral 500 mg, Mean): 1170 min; AUC0-inf (both sexes, human, plasma, po, 500 mg, Treatment C (fasting with acidic beverage), single oral 500 mg, Mean, read-out: AUC0-inf): 4240 ng·h/mL; AUC0-t (both sexes, human, plasma, po, 500 mg, Treatment C (fasting with acidic beverage), single oral 500 mg, Mean, read-out: AUC0-t): 3830 ng·h/mL; Cmax (both sexes, human, plasma, po, 500 mg, Treatment C (fasting with acidic beverage), single oral 500 mg, Mean, read-out: Cmax): 728 ng/mL; half-life (both sexes, human, plasma, po, 500 mg, Treatment C (fasting with acidic beverage), single oral 500 mg, Median): 1100 min; AUC0-inf (both sexes, human, plasma, po, 500 mg, Treatment C (fasting with acidic beverage), single oral 500 mg, Median, read-out: AUC0-inf): 4260 ng·h/mL; AUC0-t (both sexes, human, plasma, po, 500 mg, Treatment C (fasting with acidic beverage), single oral 500 mg, Median, read-out: AUC0-t): 3800 ng·h/mL; Cmax (both sexes, human, plasma, po, 500 mg, Treatment C (fasting with acidic beverage), single oral 500 mg, Median, read-out: Cmax): 666 ng/mL; tmax (both sexes, human, plasma, po, 500 mg, Treatment C (fasting with acidic beverage), single oral 500 mg, Median, read-out: tmax): 2 h; AUC0-t Ratio C/A (Geometric Mean): 126%; AUC0-t Ratio C/A (Maximum): 588%; AUC0-t Ratio C/A (Mean): 160%; AUC0-t Ratio C/A (Median): 131%; AUC0-t Ratio C/A (Minimum): 23.3%; AUC0-t Ratio C/A [3]: 23.3% and 120% and 134% and 101% and 588% and 187% and 132% and 155% and 89.3% and 130% and 143% and 111%; increase in systemic exposure (fed state (Treatment B) compared to fasting state with acidic beverage (Treatment C)): 108%; increase in systemic exposure (fed state (Treatment B) compared to fasting state with water (Treatment A)): 153%; AUC0-t Ratio B/C (Geometric Mean): 184%; AUC0-t Ratio B/C (Maximum): 615%; AUC0-t Ratio B/C (Mean): 208%; AUC0-t Ratio B/C (Median): 156%; AUC0-t Ratio B/C (Minimum): 83.2%; AUC0-t Ratio B/C [3]: 615% and 156% (2×) and 258% and 210% and 83.2% and 168% and 131% and 267% and 148% and 211% and 147% and 153%; AUC0-t Ratio B/A (Geometric Mean): 233%; AUC0-t Ratio B/A (Maximum): 490%; AUC0-t Ratio B/A (Mean): 253%; AUC0-t Ratio B/A (Median): 211%; AUC0-t Ratio B/A (Minimum): 132%; AUC0-t Ratio B/A [3]: 144% and 187% and 346% and 212% and 490% and 313% and 173% and 292% and 415% and 132% and 203% and 211% and 169%
